Experimental data reported in patent US20040213766A1, “Compositions and methods for treating transplants” (priority 2002, published 2004).

Key:
severed limbs = experiment: Limb replantation after perfusion of amputated hind legs; format: in vivo; conditions: rat hind leg replantation, perfusion every 3 hours
Procedure: Hind legs were amputated from rats, and the major feed arteries for the severed limbs were cannulated for infusion of A-FUV, loaded in a 1 mM ATP solution. The limbs were perfused with A-FUV or control solutions (see Table 1) every 3 hours, or as deemed necessary by the change in tissue ATP levels. The arterial pressure of the limbs were monitored during infusion to decrease the chance of flow-induced injury, and to monitor the overall preservation of the severed limbs (higher perfusion pressures may indicate limb morbidity). Following the preservation period, the limbs were flushed with Ringers to remove traces of A-FUV. The limbs were then surgically reattached, and external indices of limb function after anastomoses were evaluated (limb color, evidence of microthrombi, coagulation, limb temperature). The animals prior to and following replantation received heparin to prevent hemostasis. In addition, animals were placed on antibiotic therapy to reduce infection. Control limbs were perfused with vehicle only, vehicle and ATP only, or vehicle and FUVs only.

HUVEC = experiment: 3H-ATP tracer incorporation into HUVEC and repeated washes; format: cell-based, human; conditions: cells washed repeatedly
Procedure: To confirm the carboxyfluorescein studies, ^3H-ATP was used as a tracer instead of the fluor. Vesicles were incubated with HUVEC for either 5, 10, 15, 30, 45, 60, 90, 120, or 240 minutes.

With `Nc1ncnc2c1ncn2[C@@H]1O[C@H](COP(=O)(O)OP(=O)(O)OP(=O)(O)O)[C@@H](O)[C@H]1O` [ATP] the Limb outcome (severed limbs) was “necrosis”.
With `Nc1ncnc2c1ncn2[C@@H]1O[C@H](COP(=O)(O)OP(=O)(O)OP(=O)(O)O)[C@@H](O)[C@H]1O` [free ^3H-ATP, ^3H-ATP] the “radioactivity of the cells after repeated washes” value (HUVEC) was “complete loss of radioactivity”.
